Patent publication US20240139167A1, “LYSOSOME-ASSOCIATED MEMBRANE PROTEIN TARGETING COMPOUNDS AND USES THEREOF” (HADASIT MEDICAL RESEARCH SERVICES AND DEVELOPMENT LTD., priority 2021, published 2024)

Legend:
APBD cells = experiment: Proteomics (nano LC-MS/MS, LFQ); type: cell-based, human
Description: Sample preparation for MS analysis. Cell lysates in RIPA buffer containing protease inhibitors were clarified by centrifugation and […] of protein was used for protein precipitation by the chloroform/methanol method. The precipitated proteins were solubilized in 100 μl of 8 M urea, 10 mM DTT, 25 mM Tris-HCl pH 8.0 and incubated for 30 min at 22 ° C. Iodoacetamide (55 mM) was added, and samples were incubated for 30 min (22 ° C., in the dark), followed by addition of DTT (10 mM). Fifty μl of the samples was transferred into a new tube, diluted by the addition of 7 volumes of 25 mM Tris-HCl pH 8.0 and sequencing-grade modified Trypsin (Promega Corp., Madison, WI) was added (0.35 μg/sample) followed by incubation overnight at 37° C. with gentle agitation. The samples were acidified by addition of 0.2% formic acid and desalted on C18 home-made Stage tips. Peptide concentration was determined by Absorbance at 280 nm and 0.75 μg of peptides were injected into the mass spectrometer.
Nano LC-MS/MS analysis. MS analysis was performed using a Q Exactive-HF mass spectrometer (Thermo Fisher Scientific, Waltham, MA USA) coupled on-line to a nanoflow UHPLC instrument, Ultimate 3000 Dionex (Thermo Fisher Scientific, Waltham, MA USA). Peptides dissolved in 0.1% formic acid were separated without a trap column over a 120 min acetonitrile gradient run at a flow rate of 0.3 μl/min on a reverse phase 25-cm-long C18 column (75 μm ID, 2 μm, 100 Å, Thermo PepMapRSLC). The instrument settings were as previously described. Survey scans (300-1,650 m/z, target value 3E6 charges, maximum ion injection time 20 ms) were acquired and followed by higher energy collisional dissociation (HCD)-based fragmentation (normalized collision energy 27). A resolution of 60,000 was used for survey scans and up to 15 dynamically chosen most abundant precursor ions, with “peptide preferable” profile were fragmented (isolation window 1.6 m/z). The MS/MS scans were acquired at a resolution of 15,000 (target value 1E5 charges, maximum ion injection times 25 ms). Dynamic exclusion was 20 sec. Data were acquired using Xcalibur software (Thermo Scientific). To avoid a carryover, the column was washed with 80% acetonitrile, 0.1% formic acid for 25 min between samples.
MS data analysis. Mass spectra data were processed using the MaxQuant computational platform, version 1.6.14.0. Peak lists were searched against the Uniprot human FASTA sequence database from May 19, 2020, containing 49,974 entries. […] Relative protein quantification in MaxQuant was performed using the label-free quantification (LFQ) algorithm. […]
To validate the imaging-based analysis of the cell features modulated by the diseased state and by Compound 1, the inventors analyzed the effect of the disease and the treatment on protein expression. […]

Gbe^ys/ys mice = experiment: In vivo metabolism in metabolic cages; settings: 9 months old mice
Description: FIGS. 3A-3I include a graph of the effect of Compound 1 on in vivo metabolism; mice were monitored by the Promethion High-Definition Behavioral Phenotyping System (Sable Instruments, Inc.) over a 24 hr period. Effective mass was calculated by power of 0.75. Data are mean±SEM from n=11 9 months old mice in the wt. control vehicle arm, n=6 9 months old mice in the GBE^ys/ys vehicle arm and n=7 9 months old mice in the Gbe^ys/ys 144DG11 (Compound 1)-treated arm. All injections were from the age of 4 months. […] Blood metabolic panel based on n=5, 9.5 months old mice treated as indicated (3I). Blood glucose was increased, and blood triglycerides decreased in Gbe^ys/ys […] by Compound 1 (p<0.05, Student's t-tests). *p<0.05 v wt. controls, #p<0.05 v GBE^ys/ys vehicle treated mice;
The effect of Compound 1 on various metabolic parameters was determined in vivo using metabolic cages. Fuel preference at the whole animal level is determined by the respiratory quotient (RQ, the ratio of CO2 produced to O2 consumed). Lower RQ indicates higher fat burn, while higher RQ indicates higher carbohydrate burn. […] Stimulation of ambulatory activity (FIG. 3E) and of meal size and water intake (FIGS. 3F-3H) are in line with this observation of stimulation of carbohydrate catabolism in affected animals by Compound 1. Moreover, put together, the increased fuel burning, and food intake indicate that Compound 1 can improve metabolic efficiency in the affected animals.

Compound: COCCN(Cc1sccc1C)C(=O)c1cc(C)nc(O)c1 [Compound 1]
- number of proteins down-modulated by APBD and up-modulated by compound (APBD cells): 49
- number of proteins up-modulated by APBD and down-modulated by compound (APBD cells): 39
- share of all proteins modified (APBD cells; glycogen overladen (48 h starvation/24 h Gluc)): 1.3%
- share of all proteins modified (APBD cells; starved (48 h starvation)): 1.7%
- ambulatory activity (Gbe^ys/ys mice): Stimulation
- carbohydrate burning at the expense of fat burning (Gbe^ys/ys mice): increases
- meal size and water intake (Gbe^ys/ys mice): Stimulation
- total energy expenditure (Gbe^ys/ys mice): increases
- respiratory quotient (RQ) (Gbe^ys/ys mice; injections from age 4 months): increased RQ to even higher levels than those of the wild type (wt) animals
